Measured values published in ChEMBL document CHEMBL4257514, “Design and synthesis of novel 1,3,5-triphenyl pyrazolines as potential anti-inflammatory agents through allosteric inhibition of protein kinase Czeta (PKCζ)” (Medchemcomm, 2018).

biological target: T1, Protein kinase C zeta type (Homo sapiens, UniProt Q05513); assay: Inhibition of recombinant GST-fused PKCzeta (unknown origin) expressed in HEK293 cells using myelin basic protein as substrate measured after 40 mins in presence of [gamma32P]ATP by phosphorimaging analysis; conditions: not given
T1 sequence (Q05513 whole entry): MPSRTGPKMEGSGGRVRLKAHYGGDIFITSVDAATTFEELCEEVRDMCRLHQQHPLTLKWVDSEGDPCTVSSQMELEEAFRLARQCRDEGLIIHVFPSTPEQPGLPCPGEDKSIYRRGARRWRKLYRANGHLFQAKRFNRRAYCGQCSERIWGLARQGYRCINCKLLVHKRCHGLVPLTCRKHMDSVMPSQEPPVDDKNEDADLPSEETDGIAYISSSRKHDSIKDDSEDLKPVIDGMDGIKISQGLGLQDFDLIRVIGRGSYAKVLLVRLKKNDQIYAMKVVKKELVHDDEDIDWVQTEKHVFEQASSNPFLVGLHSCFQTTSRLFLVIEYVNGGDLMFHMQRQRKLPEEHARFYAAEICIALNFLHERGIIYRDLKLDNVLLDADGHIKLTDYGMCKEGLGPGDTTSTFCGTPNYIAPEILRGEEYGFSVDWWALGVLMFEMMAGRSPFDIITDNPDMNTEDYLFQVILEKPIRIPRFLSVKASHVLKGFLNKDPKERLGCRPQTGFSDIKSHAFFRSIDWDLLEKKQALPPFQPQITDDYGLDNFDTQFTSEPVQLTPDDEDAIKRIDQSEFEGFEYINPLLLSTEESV

IC50 | SMILES
4.3 µM | Oc1ccc(C2=NN(c3ccc(Cl)cc3)C(c3ccc(Cl)cc3)C2)c(O)c1 (stereo not drawn)
< 0.1 µM | Oc1ccc(C2=NN(c3cccc(Cl)c3)C(c3ccc(O)c(F)c3)C2)c(O)c1 (stereo not drawn)
6.5 µM | Oc1cccc(C2=NN(c3ccc(Cl)cc3)C(c3ccc(Cl)cc3)C2)c1 (stereo not drawn)
< 0.1 µM | Oc1ccc(C2=NN(c3cccc(Cl)c3)C(c3ccc(Cl)cc3)C2)cc1 (stereo not drawn)
0.4 µM | Oc1ccc(C2=NN(c3cccc(Cl)c3)C(c3cccc(Cl)c3)C2)cc1 (stereo not drawn)

biological target: T2, Protein kinase C iota type (Homo sapiens) (UniProt P41743); assay: Inhibition of recombinant GST-fused PKCiota (unknown origin) expressed in HEK293 cells at 20 uM using myelin basic protein as substrate measured after 40 mins in presence of [gamma32P]ATP by phosphorimaging analysis relative to control; conditions: not given
T2 sequence (whole entry): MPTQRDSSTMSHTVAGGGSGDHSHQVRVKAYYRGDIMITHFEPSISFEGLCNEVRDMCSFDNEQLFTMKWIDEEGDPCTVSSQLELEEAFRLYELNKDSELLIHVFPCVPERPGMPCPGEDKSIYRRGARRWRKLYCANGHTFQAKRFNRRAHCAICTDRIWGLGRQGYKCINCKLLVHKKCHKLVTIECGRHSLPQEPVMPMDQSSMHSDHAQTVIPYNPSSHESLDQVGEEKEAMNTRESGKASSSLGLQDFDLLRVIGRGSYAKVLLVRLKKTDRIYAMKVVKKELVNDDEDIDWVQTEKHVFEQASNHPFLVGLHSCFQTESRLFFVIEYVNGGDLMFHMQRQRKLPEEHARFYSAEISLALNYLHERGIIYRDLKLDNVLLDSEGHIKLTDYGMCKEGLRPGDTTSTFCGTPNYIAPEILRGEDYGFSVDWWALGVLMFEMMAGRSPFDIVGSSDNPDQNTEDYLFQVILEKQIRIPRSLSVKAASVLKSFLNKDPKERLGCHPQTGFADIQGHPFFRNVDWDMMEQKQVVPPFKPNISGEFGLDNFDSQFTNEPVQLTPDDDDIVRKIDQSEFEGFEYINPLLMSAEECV

inhibition | SMILES
14.8% | Oc1ccc(C2=NN(c3ccc(Cl)cc3)C(c3ccc(Cl)cc3)C2)c(O)c1 (stereo not drawn)
9.3% | Oc1cccc(C2=NN(c3ccc(Cl)cc3)C(c3ccc(Cl)cc3)C2)c1 (stereo not drawn)
22.8% | Oc1ccc(C2=NN(c3cccc(Cl)c3)C(c3ccc(Cl)cc3)C2)cc1 (stereo not drawn)
29% | Oc1ccc(C2=NN(c3cccc(Cl)c3)C(c3cccc(Cl)c3)C2)cc1 (stereo not drawn)

test system: not listed separately; assay: Cytotoxicity against mouse RAW264.7 cells assessed as live cells at 7.5 uM after 20 hrs by MTT assay relative to control; assay type: cell-based; conditions: read-out: Activity

SMILES | viability at 20 h, 7.5 µM
Oc1ccc(C2=NN(c3ccc(Cl)cc3)C(c3ccc(Cl)cc3)C2)c(O)c1 (stereo not drawn) | 88%
Oc1cccc(C2=NN(c3ccc(Cl)cc3)C(c3ccc(Cl)cc3)C2)c1 (stereo not drawn) | 91%
Oc1ccc(C2=NN(c3cccc(Cl)c3)C(c3ccc(Cl)cc3)C2)cc1 (stereo not drawn) | 91%
Oc1ccc(C2=NN(c3cccc(Cl)c3)C(c3cccc(Cl)c3)C2)cc1 (stereo not drawn) | 86%

test system: RAW264.7; assay: Inhibition of LPS-induced nitric oxide production in mouse RAW264.7 cells at 7.5 uM measured after 20 hrs by griess assay relative to control; assay type: functional; conditions: RAW264.7, 20 h

SMILES | inhibition at 7.5 µM
Oc1ccc(C2=NN(c3ccc(Cl)cc3)C(c3ccc(Cl)cc3)C2)c(O)c1 (stereo not drawn) | 31.4%
Oc1ccc(C2=NN(c3cccc(Cl)c3)C(c3ccc(O)c(F)c3)C2)c(O)c1 (stereo not drawn) | 87%
Oc1cccc(C2=NN(c3ccc(Cl)cc3)C(c3ccc(Cl)cc3)C2)c1 (stereo not drawn) | 45%
Oc1ccc(C2=NN(c3cccc(Cl)c3)C(c3ccc(Cl)cc3)C2)cc1 (stereo not drawn) | 42.8%
Oc1ccc(C2=NN(c3cccc(Cl)c3)C(c3cccc(Cl)c3)C2)cc1 (stereo not drawn) | 31.5%

test system: RAW264.7; assay: Inhibition of LPS-induced nitric oxide production in mouse RAW264.7 cells measured after 20 hrs by griess assay; assay type: functional, cell-based; conditions: RAW264.7, 20 h

IC50 | SMILES
3.1 µM | Oc1ccc(C2=NN(c3cccc(Cl)c3)C(c3ccc(O)c(F)c3)C2)c(O)c1 (stereo not drawn)

species: Homo sapiens; assay: Selectivity ratio of IC50 for recombinant GST-fused PKCzeta Val297Leu mutant (unknown origin) expressed in HEK293 cells to IC50 for recombinant GST-fused PKCzeta (unknown origin) expressed in HEK293 cells; assay type: cell-based; conditions: not given

SMILES | Ratio IC50
Oc1ccc(C2=NN(c3ccc(Cl)cc3)C(c3ccc(Cl)cc3)C2)c(O)c1 (stereo not drawn) | 2.2
Oc1ccc(C2=NN(c3cccc(Cl)c3)C(c3cccc(Cl)c3)C2)cc1 (stereo not drawn) | 10.2

biological target: Protein kinase C zeta type (Homo sapiens, UniProt Q05513, V297L); assay: Inhibition of recombinant GST-fused PKCzeta Val297Leu mutant (unknown origin) expressed in HEK293 cells using myelin basic protein as substrate measured after 40 mins in presence of [gamma32P]ATP by phosphorimaging analysis; conditions: not given
Sequence (Q05513 whole entry V297L, the tested form may be a part): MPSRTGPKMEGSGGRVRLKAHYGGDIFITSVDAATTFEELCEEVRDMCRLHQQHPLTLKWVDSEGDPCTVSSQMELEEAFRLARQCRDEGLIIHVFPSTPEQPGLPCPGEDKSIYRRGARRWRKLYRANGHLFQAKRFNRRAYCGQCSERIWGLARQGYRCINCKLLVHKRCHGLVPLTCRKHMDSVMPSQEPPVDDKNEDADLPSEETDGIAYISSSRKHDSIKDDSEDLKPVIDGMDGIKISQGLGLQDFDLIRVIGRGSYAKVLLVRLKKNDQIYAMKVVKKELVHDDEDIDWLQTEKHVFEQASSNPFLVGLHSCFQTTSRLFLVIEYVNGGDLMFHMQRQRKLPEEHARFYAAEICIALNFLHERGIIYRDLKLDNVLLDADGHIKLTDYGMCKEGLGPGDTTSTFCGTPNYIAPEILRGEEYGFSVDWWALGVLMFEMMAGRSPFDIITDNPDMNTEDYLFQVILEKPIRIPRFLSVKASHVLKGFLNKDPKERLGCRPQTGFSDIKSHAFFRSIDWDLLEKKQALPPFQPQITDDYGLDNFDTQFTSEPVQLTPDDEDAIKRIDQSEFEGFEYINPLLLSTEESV

IC50 | SMILES
9.7 µM | Oc1ccc(C2=NN(c3ccc(Cl)cc3)C(c3ccc(Cl)cc3)C2)c(O)c1 (stereo not drawn)
4.1 µM | Oc1ccc(C2=NN(c3cccc(Cl)c3)C(c3cccc(Cl)c3)C2)cc1 (stereo not drawn)
